According to patent US4127722A, “Benzhydrylsulphinyl derivatives” (Laboratoire L. Lafon, priority 1975, dated 1978):
Entries after “also recorded” stand apart in the source; their conditions may differ. Where a name gives a salt, the structure may show the parent alone.

How the values were obtained:
spontaneous motility = test: Spontaneous motility (actimetry); format: in vivo, mice; conditions: for % relative to the control animals / % variation: rays crossed
Protocol: CRL 40,028 increases the motor activity of the animals from a dose of 16 mg/kg onwards. As this effect is representative of the activity of CRL 40,028, attempts have been made to obtain its kinetics more precisely. […]

[1] = system: hypothermia, trembling and peripheral cholinergic symptoms brought about by oxotremorine; test: Interaction with oxotremorine; format: in vivo, mice
Protocol: Mice (6 per dose) are given an intraperitoneal injection of 0.5 mg/kg of oxotremorine 30 minutes after the administration of CRL 40,028.

[2] = Toxicity, gastric administration, mice; conditions: mouse, in vivo, po
[3] = system: hypothermia and ptosis produced by reserpine; test: Interaction with reserpine; format: in vivo, mice
Protocol: Batches of 6 mice are given an intraperitoneal injection of reserpine (2.5 mg/kg) 4 hours before the administration of CRL 40,028.

[4] = system: stereotype behaviour caused by apomorphine; test: Interaction with apomorphine; format: in vivo, rats
Protocol: Batches of 6 rats are given CRL 40,028 30 minutes after the subcutaneous injection of 0.5 mg/kg of apomorphine.

[5] = General behaviour / psychopharmacological spectrum (species not stated); format: in vivo
central nervous system = test: Pharmacological tests: action on the central nervous system, overall profile; format: in vivo
Protocol: The results of the pharmacological tests which were carried out have been summarised below.

[6] = system: convulsive effects of the electric shock; test: Electric shock; format: in vivo, mice
Protocol: (§1) The test is carried out on batches of 20 mice, 30 minutes after the administration of CRL 40,028.

groups of mice = test: Group toxicity; conditions: in words, comparison with amphetamine-type compounds
[7] = system: motor activity after anoxia; test: Motor recovery after hypoxia aggression; format: in vivo, mice
passes which entail pain = test: Four plate test; format: in vivo, mice; conditions: mice
Protocol: as §1

[8] = Toxicity, intraperitoneal administration, mice; format: in vivo; conditions: mouse, in vivo, ip, intraperitoneal administration
mice [9] = test: Toxicity, intraperitoneal administration, mice; format: in vivo; conditions: i.p., 256 mg/kg, 512 mg/kg and 1,024 mg/kg
[10] = system: stereotype behaviour induced by amphetamine; test: Interaction with amphetamine; format: in vivo, rats
Protocol: Amphetamine (2 mg/kg, given intraperitoneally) is injected 30 minutes after the administration of CRL 40,028 (6 rats/dose).

mice [11] = test: General behaviour, mice; format: in vivo; conditions: at all the doses studied (toxicity test)
residual motility = test: Residual motility; format: in vivo, mice; conditions: animals becoming accustomed to the chamber
carrageenin oedema = test: Carrageenin oedema; format: in vivo

With `O=C(C[S+]([O-])C(c1ccccc1)c1ccccc1)NO` (stereo not shown) [CRL 40,028, benzhydrylsulphinylacetohydroxamic acid] the minimal effective dose (spontaneous motility; Mus musculus, spontaneous motility, read-out: dose from which motor activity is increased) was ≥ 16 mg/kg, the “time in which hypermotility appears” value (spontaneous motility; mice, 64 mg/kg) was “less than 30 minutes” and the “time in which hypermotility disappears” value (spontaneous motility; mice, 64 mg/kg) was 4 h. For the same compound, the “time of maximum hypermotility” value (spontaneous motility; mice, 64 mg/kg) was “one”, the “Number of rays crossed in 30 minutes” value (spontaneous motility; mice, 64 mg/kg, - 30 mins) was 311 and the “Number of rays crossed in 30 minutes” value (spontaneous motility; mice, 64 mg/kg, - 1 hr) was 424. The “Number of rays crossed in 30 minutes” value (spontaneous motility; mice, 64 mg/kg, - 2 hrs) was 376, the “Number of rays crossed in 30 minutes” value (spontaneous motility; mice, 64 mg/kg, - 4 hrs) was 234 and the “% relative to the control animals” value (spontaneous motility; mice, 64 mg/kg, - 30 mins) was 155%. For the same compound, the “% variation” value (spontaneous motility; mice, 64 mg/kg, - 30 mins) was “+55%”, the “% relative to the control animals” value (spontaneous motility; mice, 64 mg/kg, - 1 hr) was 212% and the “% variation” value (spontaneous motility; mice, 64 mg/kg, - 1 hr) was “+112%”. The “% relative to the control animals” value (spontaneous motility; mice, 64 mg/kg, - 2 hrs) was 188%, the “% variation” value (spontaneous motility; mice, 64 mg/kg, - 2 hrs) was “+88%” and the “% relative to the control animals” value (spontaneous motility; mice, 64 mg/kg, - 4 hrs) was 117%. The “% variation” value (spontaneous motility; mice, 64 mg/kg, - 4 hrs) was “+17%”, the “Anti-oxotremorine action (peripheral)” value ([1]; Table IV, graded symbols) was 0 and the “effect on hypothermic effect of oxotremorine” value ([1]; mice, 64 mg/kg) was “not”. The “effect on hypothermic effect of oxotremorine” value ([1]; mice, 256, 16 and 4 mg/kg) was “moderately opposes the hypothermic effect of oxotremorine”, the “effect on trembling brought about by oxotremorine” value ([1]; mice, at all the doses) was “moderately reduces” and the “effect on peripheral cholinergic symptoms (salivation, lachrymation, defaecation)” value ([1]; mice, oxotremorine 0.5 mg/kg i.p.) was “does not alter the increase in salivation, lachrymation and defaecation”. For the same compound, the LD50 [2] was 1950 mg/kg, the “Anti-reserpine action (ptosis)” value ([3]; Table IV, graded symbols) was 0 and the anti-reserpine effect ([3]; in words) was “absence of a marked antagonism to reserpine”. For the same compound, the “hypothermia due to reserpine” value ([3]; in words) was “absence of a marked antagonism to hypothermia brought about by reserpine”, the “effect on hypothermic effect of reserpine” value ([3]; mice, 256 and 64 mg/kg, reserpine 2.5 mg/kg i.p.) was “partially counteracts the hypothermic effect of reserpine” and the “effect on ptosis produced by reserpine” value ([3]; mice, reserpine 2.5 mg/kg i.p.) was “does not resolve the palpebral ptosis”. The solubility (Solubility in water) was < 1 mg/mL, the “Boosting action on apomorphine” value ([4]; Table IV, graded symbols) was 0 and the “boosting of the effect of apomorphine” value ([4]; in words, comparison with amphetamine / caffeine) was “absence of boosting of the effect of apomorphine”. The “activity on the stereotype behaviour caused by apomorphine” value ([4]; rats, apomorphine 0.5 mg/kg s.c.) was “does not exert any activity”, the stereotypies ([5]; Table IV, graded symbols) was 0 and the “stimulant properties (overall)” value ([5]; animal psychopharmacology) was “stimulant properties, namely causing excitation and hyper-reactivity, and hypermotility”. The stereotypies ([5]; in words, comparison with amphetamine-type compounds) was “absence of stereotypies”, the psychostimulant profile (central nervous system; comparison with amphetamine and caffeine) was “a psychostimulant which comes closer to caffeine” and the “aggravation of the effects of electric shock” value ([6]; comparison with caffeine) was “absence of an aggravation”. For the same compound, the “antagonism against convulsive effects of the electric shock” value ([6]; mice, only at 256 mg/kg) was “a very moderate antagonism”, the “toxicity in the groups of mice” value (groups of mice) was “virtual absence of specific (?) toxicity” and the “aggravation of the effects of hypoxia” value ([7]; comparison with caffeine) was “absence of an aggravation”. The “motor activity after anoxia” value ([7]; mice, 512, 128 and 32 mg/kg, vs control animals) was “markedly greater motor activity than that of the control animals”, the “number of passes which entail pain” value (passes which entail pain; 4.1 mg/kg) was “a modest decrease in the number of such passes” and the “number of passes which entail pain” value (passes which entail pain; 256 and 64 mg/kg) was “an increase in the number of passes which entail pain”. For the same compound, the decrease in motility (passes which entail pain; at no dose) was “At no dose does CRL 40,028 bring about a major decrease in motility”, the LD50 [8] was ≤ 2050 mg/kg and the mortality (mice [9]) was “no mortality was observed”. For the same compound, the “Boosting action on amphetamine” value ([10]; Table IV, graded symbols) was 0, the “boosting of the effect of amphetamine” value ([10]; in words) was “does not boost the action of amphetamine; also recorded: absence of boosting” and the “effect on stereotype behaviour induced by amphetamine” value ([10]; rats, amphetamine 2 mg/kg i.p.) was “does not produce an overall change in the stereotype behaviour induced by amphetamine”. The “excitation of the animal” value (mice [11]) was “excitation of the animal was observed” and the “effect on residual motility” value (residual motility) was “stimulating effect”.
In the case of `[O-][S+](CCC1=NCCN1)C(c1ccccc1)c1ccccc1` (stereo not shown) [CRL 40,066, 2-(2-Benzhydrylsulphinyl-ether)-imidazoline hydrochloride], the anti-oedema effect (carrageenin oedema) is reported as “an anti-oedema effect” and the “action on the central nervous system” value (central nervous system; in words) is reported as “an effect on the central nervous system”.
